Reference: PubChem BioAssay (NCI)
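Dose response: 5 concentrations. Exposure: 48 h. Format: 96-well plates. Endpoint: linear interpolation; highest concentration if not reached. The concentration for 50% growth inhibition is given as GI50. TGI marks complete inhibition of growth.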

What was measured:
Test in all cases: NCI tumour cell line growth inhibition, 48 h
786-0 renal = tested on: 786-0 renal
A498 renal = tested on: A498 renal
A549 NSCLC = tested on: A549 NSCLC
ACHN renal = tested on: ACHN renal
BT-549 breast = tested on: BT-549 breast
CAKI-1 renal = tested on: CAKI-1 renal
COLO 205 colon = tested on: COLO 205 colon
DU-145 prostate = tested on: DU-145 prostate
EKVX NSCLC = tested on: EKVX NSCLC
HCC-2998 colon = tested on: HCC-2998 colon
HCT-116 colon = tested on: HCT-116 colon
HCT-15 colon = tested on: HCT-15 colon
HL-60(TB) leukemia = tested on: HL-60(TB) leukemia
HOP-62 NSCLC = tested on: HOP-62 NSCLC
HOP-92 NSCLC = tested on: HOP-92 NSCLC
HS 578T breast = tested on: HS 578T breast
HT29 colon = tested on: HT29 colon
IGROV1 ovarian = tested on: IGROV1 ovarian
K-562 leukemia = tested on: K-562 leukemia
KM12 colon = tested on: KM12 colon
LOX IMVI melanoma = tested on: LOX IMVI melanoma
M14 melanoma = tested on: M14 melanoma
MALME-3M melanoma = tested on: MALME-3M melanoma
MCF7 breast = tested on: MCF7 breast
MDA-MB-231 breast = tested on: MDA-MB-231 breast
MDA-MB-435 = tested on: MDA-MB-435
MDA-MB-468 breast = tested on: MDA-MB-468 breast
MOLT-4 leukemia = tested on: MOLT-4 leukemia
NCI-H226 lung = tested on: NCI-H226 lung
NCI-H23 lung = tested on: NCI-H23 lung
NCI-H460 lung = tested on: NCI-H460 lung
NCI-H522 lung = tested on: NCI-H522 lung
OVCAR-3 ovarian = tested on: OVCAR-3 ovarian
OVCAR-4 ovarian = tested on: OVCAR-4 ovarian
OVCAR-5 ovarian = tested on: OVCAR-5 ovarian
OVCAR-8 ovarian = tested on: OVCAR-8 ovarian
PC-3 prostate = tested on: PC-3 prostate
RPMI-8226 leukemia = tested on: RPMI-8226 leukemia
RXF 393 renal = tested on: RXF 393 renal
SF-268 CNS = tested on: SF-268 CNS
SF-295 CNS = tested on: SF-295 CNS
SF-539 CNS = tested on: SF-539 CNS
SK-MEL-2 melanoma = tested on: SK-MEL-2 melanoma
SK-MEL-28 melanoma = tested on: SK-MEL-28 melanoma
SK-MEL-5 melanoma = tested on: SK-MEL-5 melanoma
SK-OV-3 ovarian = tested on: SK-OV-3 ovarian
SN12C renal = tested on: SN12C renal
SNB-19 CNS = tested on: SNB-19 CNS
SNB-75 CNS = tested on: SNB-75 CNS
SR leukemia = tested on: SR leukemia
SW-620 colon = tested on: SW-620 colon
T-47D breast = tested on: T-47D breast
TK-10 renal = tested on: TK-10 renal
U251 CNS = tested on: U251 CNS
UACC-257 melanoma = tested on: UACC-257 melanoma
UACC-62 melanoma = tested on: UACC-62 melanoma
UO-31 renal = tested on: UO-31 renal

**Q.** Which GI50 (786-0 renal) does the source give for N#CC1=C(c2ccco2)Nc2c(c(-c3ccccc3)nn2-c2ccccc2)C12C(=O)Nc1ccc(Br)cc12 (centres undefined) here?
**A.** 21.3 µM

**Q.** And the TGI (786-0 renal)?
**A.** 51.8 µM

**Q.** What about the GI50 (A498 renal) of the same compound?
**A.** 16.8 µM

**Q.** What about the TGI (A498 renal) of the same compound?
**A.** 32.1 µM

**Q.** What about the GI50 (A549 NSCLC) of the same compound?
**A.** 17.4 µM

**Q.** What about the TGI (A549 NSCLC) of the same compound?
**A.** 33 µM

**Q.** What about the GI50 (ACHN renal) of the same compound?
**A.** 18.7 µM

**Q.** What about the TGI (ACHN renal) of the same compound?
**A.** 35.7 µM

**Q.** And the GI50 (BT-549 breast)?
**A.** 14.6 µM

**Q.** And the TGI (BT-549 breast)?
**A.** 29.7 µM

**Q.** And the GI50 (CAKI-1 renal)?
**A.** 19.3 µM

**Q.** What about the TGI (CAKI-1 renal) of the same compound?
**A.** 43.2 µM

**Q.** What about the GI50 (COLO 205 colon) of the same compound?
**A.** 25.4 µM

**Q.** And the TGI (COLO 205 colon)?
**A.** 69.1 µM

**Q.** And the GI50 (DU-145 prostate)?
**A.** 20.5 µM

**Q.** And the TGI (DU-145 prostate)?
**A.** 40.2 µM

**Q.** And the GI50 (EKVX NSCLC)?
**A.** 20.9 µM

**Q.** And the TGI (EKVX NSCLC)?
**A.** 54.6 µM

**Q.** What about the GI50 (HCC-2998 colon) of the same compound?
**A.** 36.5 µM

**Q.** What about the TGI (HCC-2998 colon) of the same compound?
**A.** > 100 µM

**Q.** What about the GI50 (HCT-116 colon) of the same compound?
**A.** 18.6 µM

**Q.** What about the TGI (HCT-116 colon) of the same compound?
**A.** 36.3 µM

**Q.** And the GI50 (HCT-15 colon)?
**A.** 18.1 µM

**Q.** And the TGI (HCT-15 colon)?
**A.** 36.9 µM

**Q.** What about the GI50 (HL-60(TB) leukemia) of the same compound?
**A.** 53.2 µM

**Q.** What about the TGI (HL-60(TB) leukemia) of the same compound?
**A.** > 100 µM

**Q.** And the GI50 (HOP-62 NSCLC)?
**A.** 18.4 µM

**Q.** What about the TGI (HOP-62 NSCLC) of the same compound?
**A.** 37.8 µM

**Q.** And the GI50 (HOP-92 NSCLC)?
**A.** 16.8 µM

**Q.** What about the TGI (HOP-92 NSCLC) of the same compound?
**A.** 33.2 µM

**Q.** What about the GI50 (HS 578T breast) of the same compound?
**A.** 19.3 µM

**Q.** What about the TGI (HS 578T breast) of the same compound?
**A.** 47.8 µM

**Q.** What about the GI50 (HT29 colon) of the same compound?
**A.** 18.3 µM

**Q.** And the TGI (HT29 colon)?
**A.** 35.2 µM

**Q.** What about the GI50 (IGROV1 ovarian) of the same compound?
**A.** 18.5 µM

**Q.** And the TGI (IGROV1 ovarian)?
**A.** 34.6 µM

**Q.** And the GI50 (K-562 leukemia)?
**A.** 38 µM

**Q.** And the TGI (K-562 leukemia)?
**A.** > 100 µM

**Q.** And the GI50 (KM12 colon)?
**A.** 33.2 µM

**Q.** What about the TGI (KM12 colon) of the same compound?
**A.** > 100 µM

**Q.** And the GI50 (LOX IMVI melanoma)?
**A.** 18.1 µM

**Q.** And the TGI (LOX IMVI melanoma)?
**A.** 34.8 µM

**Q.** What about the GI50 (M14 melanoma) of the same compound?
**A.** 18.5 µM

**Q.** What about the TGI (M14 melanoma) of the same compound?
**A.** 36.8 µM

**Q.** And the GI50 (MALME-3M melanoma)?
**A.** 16.1 µM

**Q.** What about the TGI (MALME-3M melanoma) of the same compound?
**A.** 29.9 µM

**Q.** What about the GI50 (MCF7 breast) of the same compound?
**A.** 17.3 µM

**Q.** And the TGI (MCF7 breast)?
**A.** 33.1 µM

**Q.** What about the GI50 (MDA-MB-231 breast) of the same compound?
**A.** 18.3 µM

**Q.** And the TGI (MDA-MB-231 breast)?
**A.** 34.2 µM

**Q.** And the GI50 (MDA-MB-435)?
**A.** 24.2 µM

**Q.** What about the TGI (MDA-MB-435) of the same compound?
**A.** 61.5 µM

**Q.** What about the GI50 (MDA-MB-468 breast) of the same compound?
**A.** 26 µM

**Q.** What about the TGI (MDA-MB-468 breast) of the same compound?
**A.** 69.3 µM

**Q.** And the GI50 (MOLT-4 leukemia)?
**A.** 35.2 µM

**Q.** What about the TGI (MOLT-4 leukemia) of the same compound?
**A.** > 100 µM

**Q.** And the GI50 (NCI-H226 lung)?
**A.** 21.1 µM

**Q.** What about the TGI (NCI-H226 lung) of the same compound?
**A.** 44.4 µM

**Q.** What about the GI50 (NCI-H23 lung) of the same compound?
**A.** 21.5 µM

**Q.** What about the TGI (NCI-H23 lung) of the same compound?
**A.** 47.7 µM

**Q.** And the GI50 (NCI-H460 lung)?
**A.** 17.9 µM

**Q.** And the TGI (NCI-H460 lung)?
**A.** 33.4 µM

**Q.** And the GI50 (NCI-H522 lung)?
**A.** 20.4 µM

**Q.** And the TGI (NCI-H522 lung)?
**A.** 48.4 µM

**Q.** What about the GI50 (OVCAR-3 ovarian) of the same compound?
**A.** 28.9 µM

**Q.** And the TGI (OVCAR-3 ovarian)?
**A.** 96.4 µM

**Q.** And the GI50 (OVCAR-4 ovarian)?
**A.** 19.2 µM

**Q.** What about the TGI (OVCAR-4 ovarian) of the same compound?
**A.** 40.7 µM

**Q.** What about the GI50 (OVCAR-5 ovarian) of the same compound?
**A.** 19.1 µM

**Q.** And the TGI (OVCAR-5 ovarian)?
**A.** 44.2 µM

**Q.** And the GI50 (OVCAR-8 ovarian)?
**A.** 18 µM

**Q.** What about the TGI (OVCAR-8 ovarian) of the same compound?
**A.** 33.1 µM

**Q.** And the GI50 (PC-3 prostate)?
**A.** 16.2 µM

**Q.** And the TGI (PC-3 prostate)?
**A.** 31.6 µM

**Q.** And the GI50 (RPMI-8226 leukemia)?
**A.** 35.9 µM

**Q.** And the TGI (RPMI-8226 leukemia)?
**A.** > 100 µM

**Q.** What about the GI50 (RXF 393 renal) of the same compound?
**A.** 17.3 µM

**Q.** And the TGI (RXF 393 renal)?
**A.** 34.5 µM

**Q.** What about the GI50 (SF-268 CNS) of the same compound?
**A.** 26.8 µM

**Q.** And the TGI (SF-268 CNS)?
**A.** 74 µM

**Q.** And the GI50 (SF-295 CNS)?
**A.** 19.6 µM

**Q.** And the TGI (SF-295 CNS)?
**A.** 50 µM

**Q.** And the GI50 (SF-539 CNS)?
**A.** 18.1 µM

**Q.** What about the TGI (SF-539 CNS) of the same compound?
**A.** 35.1 µM

**Q.** And the GI50 (SK-MEL-2 melanoma)?
**A.** 18.1 µM

**Q.** And the TGI (SK-MEL-2 melanoma)?
**A.** 36.7 µM

**Q.** What about the GI50 (SK-MEL-28 melanoma) of the same compound?
**A.** 17.9 µM

**Q.** And the TGI (SK-MEL-28 melanoma)?
**A.** 33.6 µM

**Q.** What about the GI50 (SK-MEL-5 melanoma) of the same compound?
**A.** 18 µM

**Q.** And the TGI (SK-MEL-5 melanoma)?
**A.** 32.6 µM

**Q.** What about the GI50 (SK-OV-3 ovarian) of the same compound?
**A.** 17.3 µM

**Q.** What about the TGI (SK-OV-3 ovarian) of the same compound?
**A.** 34.1 µM

**Q.** What about the GI50 (SN12C renal) of the same compound?
**A.** 18.3 µM

**Q.** What about the TGI (SN12C renal) of the same compound?
**A.** 35.6 µM

**Q.** And the GI50 (SNB-19 CNS)?
**A.** 18.6 µM

**Q.** What about the TGI (SNB-19 CNS) of the same compound?
**A.** 42.2 µM

**Q.** What about the GI50 (SNB-75 CNS) of the same compound?
**A.** 16 µM

**Q.** And the TGI (SNB-75 CNS)?
**A.** 38 µM

**Q.** And the GI50 (SR leukemia)?
**A.** 48.9 µM

**Q.** What about the TGI (SR leukemia) of the same compound?
**A.** > 100 µM

**Q.** And the GI50 (SW-620 colon)?
**A.** 30 µM

**Q.** What about the TGI (SW-620 colon) of the same compound?
**A.** 97.6 µM

**Q.** And the GI50 (T-47D breast)?
**A.** 30.4 µM

**Q.** And the TGI (T-47D breast)?
**A.** > 100 µM

**Q.** And the GI50 (TK-10 renal)?
**A.** 17 µM

**Q.** What about the TGI (TK-10 renal) of the same compound?
**A.** 33.5 µM

**Q.** What about the GI50 (U251 CNS) of the same compound?
**A.** 18 µM

**Q.** What about the TGI (U251 CNS) of the same compound?
**A.** 33.4 µM

**Q.** And the GI50 (UACC-257 melanoma)?
**A.** 20.5 µM

**Q.** And the TGI (UACC-257 melanoma)?
**A.** 50.6 µM

**Q.** And the GI50 (UACC-62 melanoma)?
**A.** 17.2 µM

**Q.** And the TGI (UACC-62 melanoma)?
**A.** 32.1 µM

**Q.** What about the GI50 (UO-31 renal) of the same compound?
**A.** 28.1 µM

**Q.** And the TGI (UO-31 renal)?
**A.** > 100 µM
